Experimental data: US20080275078A1, “Pyrazolo[3,4-B] Pyridine Compounds and Their Use as Pde4 Inhibitors” (Glaxo Group Limited, priority 2004, published 2008)

System: dinitrofluorobenzene (DNFB)-induced delayed type hypersensitivity (DTH) response in pigs
Assay: In Vivo Assay A: pig model of atopic dermatitis, skin topical administration
Settings: 1% (w/w) cream formulation; p<0.05 by ANOVA
Description: The pig DTH (delayed type hypersensitivity) model of contact hypersensitivity utilizes the Th2-mediated inflammatory response in pig skin to mimic the pathology of atopic dermatitis in humans. The model measures the potential anti-inflammatory effect of compounds, topically-applied to the skin, on the acute DTH (delayed type hypersensitivity) response in castrated male Yorkshire pigs.
In general in the assay, pigs (domestic Yorkshire pigs, 15-18 kg at time of sensitization, castrated males) are first sensitized by topical application of ca. 10% (w/v) dinitrofluorobenzene (DNFB) dissolved in DMSO:acetone:olive oil (ca. 1:5:3) (ca. 40 mg DNFB, 400 microlitre solution total) to the ears (outer) and groin (inner). The pigs are then challenged 12 days later with ca. 0.6% (w/v) DNFB applied to randomized sites on the shaved back of the pigs (ca. 90 micrograms/site; sites are identified and numbered by grid made with marking pen).
On the day of challenge, the treatments are performed at the challenge sites at about 2 hours prior to and about 6 hours after challenge (for DMSO/acetone solutions/suspensions containing the PDE4 inhibitor, to maximize exposure to drug), or at about 30 minutes after and about 6 hours after challenge (for topical ointments or creams containing the PDE4 inhibitor, representing a more clinically relevant treatment protocol).
One day (about 24 hrs) after challenge, and optionally again at ca. 48 hrs post challenge, test sites are visually evaluated for intensity and extent of erythema by measuring the diameter of the reaction at its widest point and assigning scores of 0 to 4 for each of erythema intensity and erythema extent. Induration (a measure of swelling) is also scored 0 to 4. Scores for erythema intensity, erythema extent and induration are assigned according to the following criteria: Intensity of Erythema: 0=normal, 1=minimal, barely visible, 2=mild, 3=moderate, 4=severe. Extent of Erythema (not raised): 0=no edema, 1=macules of pin head size, 2=lentil sized macules, 3=confluent macules, 4=diffuse over entire site. Induration (palpable): 0=normal, 1=nodules of pin head size, 2=doughy lentil sized nodules, 3=confluent firm nodules, 4=diffuse hard lesion. The summed visual score at ca. 24 hours includes the individual scores for erythema intensity, erythema extent, and induration; so the maximal summed score for each site would be 12. High summed scores can generally indicate a high inflammatory response. Visual scores are subject to some inaccuracy/error.
Differences in the summed score between adjacent control (placebo) and treatment sites on the grids are calculated. This difference value is then used to determine the percent inhibition compared to the summed score for the control (placebo) sites. The more negative the difference value, the greater the calculated inhibition. Percent inhibition of (percent inhibition compared to) the mean summed score can be calculated.
About 24 hours after challenge, treatment sites can optionally also be visually evaluated for lesion area.
The anti-inflammatory effect of the compound 4-{[1-(aminocarbonyl)-4-piperidinyl]amino}-N-[(3,4-dimethylphenyl)methyl]-1-ethyl-1H-pyrazolo[3,4-b]pyridine-5-carboxamide (“Example 2 or 2A compound”), applied topically to the skin, on the acute DTH response in castrated male Yorkshire pigs is compared to that of another PDE4 inhibitor cipamfylline (BRL-61063) and the topical immunomodulator pimecrolimus.
In the above assay, the Example 2 or 2A compound is topically administered: either (A) at ca. 2.5% (w/v) concentration in a solution of ca. 10% DMSO/90% acetone (ca. 50 microlitres or ca. 1.5 mg/site) at about 2 hours prior to and about 6 hours after the DNFB challenge; or (B) at ca. 0.5% (w/w) concentration in an ointment containing propylene glycol (PG)* (ca. 25 mg of formulation/site) at about 30 minutes after and about 6 hours after the DNFB challenge. […]

SMILES | inhibition of the summed scores
CC[C@@H]1/C=C(\C)C[C@H](C)C[C@H](OC)[C@H]2O[C@@](O)(C(=O)C(=O)N3CCCC[C@H]3C(=O)O[C@H](/C(C)=C/[C@@H]3CC[C@H](Cl)[C@H](OC)C3)[C@H](C)[C@@H](O)CC1=O)[C@H](C)C[C@@H]2OC [pimecrolimus, reference compound] | about 29%

Target: T1, PDE4B (human recombinant) (Homo sapiens, UniProt Q07343)
T1 construct: made in house; host or cells: Saccharomyces cerevisiae strain GL62 (PDE-deficient yeast), 100,000xg supernatant of cell lysate, as described in WO 94/20079
Assay: Inhibition of PDE4B activity (SPA or FP assay)
Assay type: biochemical
Settings: SPA or FP assay or similar; n=1 or average of 2 or more readings; range given for the listed group of Examples; read-out: PDE4B pIC50 (±about 0.5) (converted)
Description: Human recombinant PDE4B, in particular the 2B splice variant thereof (HSPDE4B2B), is disclosed in WO 94/20079 and also M. M. McLaughlin et al., “A low Km, rolipram-sensitive, cAMP-specific phosphodiesterase from human brain: cloning and expression of cDNA, biochemical characterisation of recombinant protein, and tissue distribution of mRNA”, J. Biol. Chem., 1993, 268, 6470-6476. For example, in Example 1 of WO 94/20079, human recombinant PDE4B is described as being expressed in the PDE-deficient yeast Saccharomyces cerevisiae strain GL62, e.g. after induction by addition of 150 uM CuSO4, and 100,000×g supernatant fractions of yeast cell lysates are described for use in the harvesting of PDE4B enzyme.
The ability of compounds to inhibit catalytic activity at PDE4B or 4D (human recombinant), PDE3 (from bovine aorta), PDE5 (human recombinant) or PDE6 (from bovine retina) can optionally be determined by Scintillation Proximity Assay (SPA) in a 96-well format. • Test compounds (as a solution in DMSO, preferably about 2 microlitre (ul) volume of DMSO solution) are preincubated at ambient temperature (room temperature, e.g. 19-23° C.) in Wallac Isoplates (code 1450-514) with PDE enzyme in 50 mM Tris-HCl buffer pH 7.5, 8.3 mM MgCl2, 1.7 mM EGTA, 0.05% (w/v) bovine serum albumin for 10-30 minutes (usually 30 minutes). The enzyme concentration is adjusted so that no more than 20% hydrolysis of the substrate defined below occurs in control wells without compound, during the incubation. For the PDE3, PDE4B and PDE4D assays, [5′,8-^3H]Adenosine 3′,5′-cyclic phosphate (Amersham Pharmacia Biotech, code TRK.559; or Amersham Biosciences UK Ltd, Pollards Wood, Chalfont St Giles, Buckinghamshire HP8 4SP, UK) is added to give 0.05 uCi per well and about 10 nM final concentration. For the PDE5 and PDE6 assays, [8-^3H]Guanosine 3′,5′-cyclic phosphate (Amersham Pharmacia Biotech, code TRK.392) is added to give 0.05 uCi per well and about 36 nM final concentration. Plates containing assay mixture, preferably approx. 100 ul volume of assay mixture, are mixed on an orbital shaker for 5 minutes and incubated at ambient temperature for 1 hour. Phosphodiesterase SPA beads (Amersham Pharmacia Biotech, code RPNQ 0150) are added (about 1 mg per well) to terminate the assay. Plates are sealed and shaken and allowed to stand at ambient temperature for 35 minutes to 1 hour (preferably 35 minutes) to allow the beads to settle. Bound radioactive product is measured using a WALLAC TRILUX 1450 Microbeta scintillation counter. For inhibition curves, 10 concentrations (e.g. 1.5 nM-30 uM) of each compound are assayed. Curves are analysed using ActivityBase and XLfit (ID Business Solutions Limited, 2 Ocean Court, Surrey Research Park, Guildford, Surrey GU2 7QB, United Kingdom) Results are expressed as pIC50 values.
The ability of compounds to inhibit catalytic activity at PDE4B (human recombinant) or PDE4D (human recombinant) can optionally be determined by IMAP Fluorescence Polarisation (FP) assay (IMAP Explorer kit, available from Molecular Devices Corporation, Sunnydale, Calif., USA; Molecular Devices code: R8062) in a 384-well format.
The IMAP FP assay is able to measure PDE activity in an homogenous, non-radioactive assay format. The FP assay uses the ability of immobilised trivalent metal cations, coated onto nanoparticles (tiny beads), to bind the phosphate group of Fl-AMP that is produced on the hydrolysis of fluorescein-labelled (Fl) cyclic adenosine mono-phosphate (Fl-cAMP) to the non-cyclic Fl-AMP form. […] Binding of Fl-AMP product to the beads (coated with the immobilised trivalent cations) slows the rotation of the bound Fl-AMP and leads to an increase in the fluorescence polarisation ratio of parallel to perpendicular light. Inhibition of the PDE reduces/inhibits this signal increase. […]

T1 sequence (Q07343 1-564 isoform Q07343-2): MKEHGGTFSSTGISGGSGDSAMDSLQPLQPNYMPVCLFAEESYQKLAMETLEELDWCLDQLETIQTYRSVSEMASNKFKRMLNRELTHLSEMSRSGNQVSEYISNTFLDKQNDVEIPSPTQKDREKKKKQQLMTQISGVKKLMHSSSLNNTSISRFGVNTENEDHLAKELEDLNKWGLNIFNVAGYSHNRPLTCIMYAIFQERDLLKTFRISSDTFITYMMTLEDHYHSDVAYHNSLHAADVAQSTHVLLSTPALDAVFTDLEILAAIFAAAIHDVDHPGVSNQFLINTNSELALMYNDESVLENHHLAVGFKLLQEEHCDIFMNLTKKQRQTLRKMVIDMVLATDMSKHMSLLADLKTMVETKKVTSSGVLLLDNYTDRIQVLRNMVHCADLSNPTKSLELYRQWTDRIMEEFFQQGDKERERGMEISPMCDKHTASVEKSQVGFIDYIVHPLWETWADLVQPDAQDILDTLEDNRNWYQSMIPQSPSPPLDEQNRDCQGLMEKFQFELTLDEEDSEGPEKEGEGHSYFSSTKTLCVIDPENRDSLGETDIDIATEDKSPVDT

IC50 [nM] | SMILES
~10 | CCn1ncc2c(N[C@H]3CCN(C(N)=O)C3)c(C(=O)NCc3ccc(C)c(C)c3)cnc21 [Example 70, 4-{[(3S)-1-(aminocarbonyl)-3-pyrrolidinyl]amino}-N-[(3,4-dimethylphenyl)methyl]-1-ethyl-1H-pyrazolo[3,4-b]pyridine-5-carboxamide]
1 to 3.16 | CCn1ncc2c(NC3CCN(C(N)=O)CC3)c(C(=O)NCc3ccc(OC)cc3)cnc21 [Example 3, 4-{[1-(aminocarbonyl)-4-piperidinyl]amino}-1-ethyl-N-{[4-(methyloxy)phenyl]methyl}-1H-pyrazolo[3,4-b]pyridine-5-carboxamide]
0.631 to 0.794 | CCn1ncc2c(NC3CCN(C(N)=O)CC3)c(C(=O)NCc3ccc(C)cc3C)cnc21 [Example 1, 4-{[1-(aminocarbonyl)-4-piperidinyl]amino}-N-[(2,4-dimethylphenyl)methyl]-1-ethyl-1H-pyrazolo[3,4-b]pyridine-5-carboxamide]
31.6 to 100 | CCn1ncc2c(N[C@@H]3CCN(C(N)=O)C3)c(C(=O)NCc3ccc(C)c(C)c3)cnc21 [Example 72, 4-{[(3R)-1-(aminocarbonyl)-3-pyrrolidinyl]amino}-N-[(3,4-dimethylphenyl)methyl]-1-ethyl-1H-pyrazolo[3,4-b]pyridine-5-carboxamide]
1.26 to 5.01 | CCn1ncc2c(N[C@H]3CC[C@@H](C(N)=O)CC3)c(C(=O)NCc3ccc(OC)cc3)cnc21 [Example 47, 4-{[cis-4-(aminocarbonyl)cyclohexyl]amino}-1-ethyl-N-{[4-(methyloxy)phenyl]methyl}-1H-pyrazolo[3,4-b]pyridine-5-carboxamide]

The next lines start with the compound.

SMILES | IC50 [nM]
CCn1ncc2c(N[C@H]3CCN(C(N)=O)C3)c(C(=O)NCc3ccc(C)cc3C)cnc21 [Example 69, 4-{[(3S)-1-(aminocarbonyl)-3-pyrrolidinyl]amino}-N-[(2,4-dimethylphenyl)methyl]-1-ethyl-1H-pyrazolo[3,4-b]pyridine-5-carboxamide] | ~10
CCn1ncc2c(NC3CCC(C(N)=O)CC3)c(C(=O)NCc3ccc(C)cc3C)cnc21 (centres unmarked) [Example 5, 4-{[4-(aminocarbonyl)cyclohexyl]amino}-N-[(2,4-dimethylphenyl)methyl]-1-ethyl-1H-pyrazolo[3,4-b]pyridine-5-carboxamide] | 1 to 3.16
CCn1ncc2c(N[C@H]3CC[C@@H](C(N)=O)CC3)c(C(=O)NCc3ccc(C)cc3C)cnc21 [Example 45, 4-{[cis-4-(aminocarbonyl)cyclohexyl]amino}-N-[(2,4-dimethylphenyl)methyl]-1-ethyl-1H-pyrazolo[3,4-b]pyridine-5-carboxamide] | 1.26 to 5.01
CCn1ncc2c(N[C@H]3CC[C@H](C(N)=O)CC3)c(C(=O)NCc3ccc(C)cc3C)cnc21 [Example 46, 4-{[trans-4-(aminocarbonyl)cyclohexyl]amino}-N-[(2,4-dimethylphenyl)methyl]-1-ethyl-1H-pyrazolo[3,4-b]pyridine-5-carboxamide] | 158 to 200
CCn1ncc2c(N[C@@H]3CCN(C(N)=O)C3)c(C(=O)NCc3ccc(C)cc3C)cnc21 [Example 71, 4-{[(3R)-1-(aminocarbonyl)-3-pyrrolidinyl]amino}-N-[(2,4-dimethylphenyl)methyl]-1-ethyl-1H-pyrazolo[3,4-b]pyridine-5-carboxamide] | 31.6 to 100
CCn1ncc2c(N[C@H]3CC[C@H](C(N)=O)CC3)c(C(=O)NCc3ccc(C)c(C)c3)cnc21 [Example 9, 4-{[trans-4-(aminocarbonyl)cyclohexyl]amino}-N-[(3,4-dimethylphenyl)methyl]-1-ethyl-1H-pyrazolo[3,4-b]pyridine-5-carboxamide] | 158 to 200
CCn1ncc2c(N[C@H]3CC[C@@H](C(N)=O)CC3)c(C(=O)NCc3ccc(C)c(C)c3)cnc21 [Example 8, 4-{[cis-4-(aminocarbonyl)cyclohexyl]amino}-N-[(3,4-dimethylphenyl)methyl]-1-ethyl-1H-pyrazolo[3,4-b]pyridine-5-carboxamide] | 1 to 3.16
CCn1ncc2c(NC3CCC(C(N)=O)CC3)c(C(=O)NCc3ccc(C)c(C)c3)cnc21 (centres unmarked) [Example 4, 4-{[4-(aminocarbonyl)cyclohexyl]amino}-N-[(3,4-dimethylphenyl)methyl]-1-ethyl-1H-pyrazolo[3,4-b]pyridine-5-carboxamide] | 1 to 3.16
